# Assay: Inhibitory concentration against interleukin-2 binding
# Set-up: species or system Homo sapiens
row,IC50 [µM],Structure (SMILES)
1,0.06,CC(C)C[C@@H](NC(=N)N)C(=O)NCC(=O)N1CCC(c2cc(-c3ccc(OCc4ccc(C(=O)O)o4)c(Cl)c3Cl)nn2C)CC1
2,55,CC(C)[C@H](CCNC(=O)N1CCC(c2cc(-c3cccc(Cl)c3Cl)nn2C)CC1)N=C(N)N
3,> 100,CCCN(CCCNC(=O)N1CCC(c2cc(-c3cccc(Cl)c3Cl)nn2C)CC1)C(=N)N
4,> 100,Cn1nc(-c2cccc(Cl)c2Cl)cc1C1CCN(C(=O)NCCCCN=C(N)N)CC1
5,30,CC(C)C[C@H](CCNS(=O)(=O)N1CCC(c2cc(-c3cccc(Cl)c3Cl)nn2C)CC1)N=C(N)N
6,> 100,Cn1nc(-c2cccc(Cl)c2Cl)cc1C1CCN(C(=O)NCC[C@H](N=C(N)N)C(=O)N2CCC3CCCCC3C2)CC1 (stereo partly drawn)
7,14,CN(CCCNS(=O)(=O)N1CCC(c2cc(-c3cccc(Cl)c3Cl)nn2C)CC1)C(=N)N
8,7,CN(C)C(=O)[C@H](CCNC(=O)N1CCC(c2cc(-c3cccc(Cl)c3Cl)nn2C)CC1)N=C(N)N
9,> 100,CC(C)N(CCCNC(=O)N1CCC(c2cc(-c3cccc(Cl)c3Cl)nn2C)CC1)C(=N)N
10,> 100,CC(C)[C@@H](CCNS(=O)(=O)N1CCC(c2cc(-c3cccc(Cl)c3Cl)nn2C)CC1)N=C(N)N
11,23,CC(C)C[C@H](CCNC(=O)N1CCC(c2cc(-c3cccc(Cl)c3Cl)nn2C)CC1)N=C(N)N
12,29,Cn1nc(-c2cccc(Cl)c2Cl)cc1C1CCN(C(=O)NCCCN=C(N)N)CC1
13,> 100,Cn1nc(-c2cccc(Cl)c2Cl)cc1C1CCN(S(=O)(=O)NCCN=C(N)N)CC1

# Continued, molecule first:
row,Structure (SMILES),IC50 [µM]
1,CNC(=O)[C@H](CCNC(=O)N1CCC(c2cc(-c3cccc(Cl)c3Cl)nn2C)CC1)N=C(N)N,> 100
2,CCN(CC1CC1)C(=O)[C@H](CCNC(=O)N1CCC(c2cc(-c3cccc(Cl)c3Cl)nn2C)CC1)N=C(N)N,60
3,C[C@H](CCNS(=O)(=O)N1CCC(c2cc(-c3cccc(Cl)c3Cl)nn2C)CC1)N=C(N)N,90
4,CN(CCCNS(=O)(=O)N1CCC(c2cc(-c3ccc(OCc4ccc(C(=O)O)o4)c(Cl)c3Cl)nn2C)CC1)C(=N)N,0.6
5,Cn1nc(-c2cccc(Cl)c2Cl)cc1C1CCN(S(=O)(=O)NCCCCN=C(N)N)CC1,> 100
6,CC(=O)N1CCN(C(=O)[C@H](CCNC(=O)N2CCC(c3cc(-c4cccc(Cl)c4Cl)nn3C)CC2)N=C(N)N)CC1,60
7,COC(=O)[C@H](CCNC(=O)N1CCC(c2cc(-c3cccc(Cl)c3Cl)nn2C)CC1)N=C(N)N,> 100
8,CCN(CC)C(=O)[C@H](CCNC(=O)N1CCC(c2cc(-c3cccc(Cl)c3Cl)nn2C)CC1)N=C(N)N,11
9,Cn1nc(-c2cccc(Cl)c2Cl)cc1C1CCN(C(=O)NCC[C@H](N=C(N)N)C(=O)O)CC1,> 100
10,Cn1nc(-c2cccc(Cl)c2Cl)cc1C1CCN(C(=O)NCC[C@H](N=C(N)N)C(=O)N2CCCC2)CC1,20
11,C[C@H](CCNC(=O)N1CCC(c2cc(-c3cccc(Cl)c3Cl)nn2C)CC1)N=C(N)N,57
12,Cn1nc(-c2cccc(Cl)c2Cl)cc1C1CCN(C(=O)NCCN=C(N)N)CC1,> 100
13,CC(C)N(CCCNS(=O)(=O)N1CCC(c2cc(-c3cccc(Cl)c3Cl)nn2C)CC1)C(=N)N,48
14,COC(=O)[C@H](Cc1ccc(C#Cc2ccccc2)cc1)NC(=O)C[C@H]1CCCN(C(=N)N)C1,3
15,CN(CCCNC(=O)N1CCC(c2cc(-c3cccc(Cl)c3Cl)nn2C)CC1)C(=N)N,16
16,CC(C)[C@H](CCNS(=O)(=O)N1CCC(c2cc(-c3cccc(Cl)c3Cl)nn2C)CC1)N=C(N)N,76
17,CC(C)[C@@H](CCNC(=O)N1CCC(c2cc(-c3cccc(Cl)c3Cl)nn2C)CC1)N=C(N)N,> 100
18,Cn1nc(-c2cccc(Cl)c2Cl)cc1C1CCN(S(=O)(=O)NCCCN=C(N)N)CC1,23
19,N=C(N)N[C@@H](C(=O)NCC(=O)N1CCC(c2cc(-c3cccc(Cl)c3Cl)n[nH]2)CC1)C1CCCCC1,6
20,CCCN(CCCNS(=O)(=O)N1CCC(c2cc(-c3cccc(Cl)c3Cl)nn2C)CC1)C(=N)N,32
